How the values were obtained:
[1] = tested on: cultured chick heart cells; experiment: Ko-dependence of Tc-MIBI net uptake in the absence and presence of TPB (FIG. 5); type: cell-based; conditions: absence of TPB; more pronounced in presence of TPB
Method: FIG. 5. Ko -dependence of Tc-MIBI net uptake in the absence ( ) and presence (.quadrature.) of TPB (10^-5 M). Peak accumulation of Tc-MIBI was determined in preparations incubated in loading buffers containing the indicated Ko (equimolar replacement of NaCl by KCl) for 40 minutes (control) or for 20 minutes (+TPB). Ko -induced cell volume changes were prevented by addition of bumetanide (10^-5 M) to each buffer. Each point is the mean ±SEM of 3 determinations. Solid lines have no theoretical significance. The dashed line represents the Tc-MIBI content expected at each Ko assuming an intracellular/extracellular Tc-MIBI concentration ratio equal to the Ki /Ko ratio.
Monolayers of spontaneously contractile chick ventricular myocardial cells were obtained from disaggregated 10-day old chick embryo hearts by a slight modification of previously published methods (Horres, C. R., et al., In Pinson, A. (ed.), The Heart Cell in Culture, Boca Raton, CRC Press, pp. 77-108 (1987)). Hearts were trimmed of connective tissue and atria, finely minced and serially exposed to 0.024% (w/v) trypsin in Ca^2+ - and Mg^2+ - free Earle's salt solution for 7 minutes at 37° C. […] Cells were centrifuged at 400 g for 10 minutes, resuspended and combined in culture medium, counted with a hemocytometer and diluted to yield a suspension of 5×10^5 cells/ml. […]

[2] = tested on: cultured chick heart cells; experiment: Influence of TPB and CCCP on (membrane potential-independent) accumulation of Tc-MIBI (FIG. 4); type: cell-based; conditions: n=3-4
Method: FIG. 4. […] Preparations were incubated for the times indicated in 5.4 mM Ko control loading buffer containing tracer Tc-MIBI and TPB together (Δ) or in loading buffer containing Tc-MIBI alone (.quadrature.). For the latter incubation, TPB was added to the loading buffer at the arrow and cell content of Tc-MIBI subsequently determined (o). Under each condition, CCCP was added to the loading buffers as indicated by the arrows and cell content of Tc-MIBI determined ( , , ·). Each point is the mean ±SEM of 3 determinations.
Monolayers of spontaneously contractile chick ventricular myocardial cells were obtained from disaggregated 10-day old chick embryo hearts by a slight modification of previously published methods (Horres, C. R., et al., In Pinson, A. (ed.), The Heart Cell in Culture, Boca Raton, CRC Press, pp. 77-108 (1987)). Hearts were trimmed of connective tissue and atria, finely minced and serially exposed to 0.024% (w/v) trypsin in Ca^2+ - and Mg^2+ - free Earle's salt solution for 7 minutes at 37° C. Gentle trituration and agitation on an orbital shaker bath aided disaggregation. Cells released from the first exposure were discarded and cells aspirated from the next four exposures were then added to an equal volume of trypsin deactivating solution consisting of ice-cold culture medium. Cells were centrifuged at 400 g for 10 minutes, resuspended and combined in culture medium, counted with a hemocytometer and diluted to yield a suspension of 5×10^5 cells/ml. 12 ml of suspension were incubated in 100 mm plastic culture dishes containing 7 coverslips (25 mm diameter) placed on the bottom of each dish to serve as substrate for cell growth. Cells were maintained in a humidified atmosphere of 5% CO2 /95% air for 3-4 days yielding a confluent layer of spontaneously contractile myocytes on each coverslip.
Radioactive uptake methods have been described in detail (Piwnica-Worms, D., et al, Circ. (in press). Briefly, coverslips with confluent cells were removed from culture media and pre-equilibrated for 40-60 seconds in MEBSS buffer. Uptake and retention experiments were initiated by immersion of coverslips in 60 mm glass Pyrex dishes containing loading solution consisting of buffer with 0.1-0.6 nM [^99m Tc-MIBI] (0.01-0.4 Ci/nmole; 25-100 uCi/ml). Preparations were removed at various times and rinsed three times in 25 ml volumes of ice-cold (2° C.) isotope-free buffer for 8 seconds each to clear extracellular spaces. Preparations and aliquots of the loading buffer and stock solutions were counted in a well-type sodium iodide gamma counter after which cell protein on each coverslip was extracted in 1% sodium dodecylsulfate with 10 mM sodium borate and assayed by the method of Lowry (Lowry, O. H., et al., J. Biol. Chem. 193:265-275 (1951)). Tc-MIBI binding to glass coverslips without cells was used as an estimate of non-specific adhesion to the substrate ([…] obtained with cellular preparations); this value was subtracted from total uptake determinations to derive the cell-associated counts. Use of generator equilibrium equations (Lamson, M. L., et al., i J. Nucl. Med. 16:639-641 (1975)) allowed calculation of absolute moles of Tc-MIBI in solutions and preparations. Results were therefore expressed as fmol cellular Tc-MIBI/mg protein per nM extracellular Tc-MIBI concentration. […]

Compound: [C-]#[N+]CC(C)(C)OC.[C-]#[N+]CC(C)(C)OC.[C-]#[N+]CC(C)(C)OC.[C-]#[N+]CC(C)(C)OC.[C-]#[N+]CC(C)(C)OC.[C-]#[N+]CC(C)(C)OC.[Tc] [Tc-MIBI, hexakis(methoxyisobutylisonitrile)technetium(I)]
- nominal intracellular/extracellular accumulation ratio vs Ki/Ko ratio [1]: greater than those expected from the Ki /Ko ratios in the absence of TPB
- Tc-MIBI 2 min uptake ([2]; +5×10^-6 M TPB, 5 seconds pre-incubation): 20.6±0.43 fmol Tc-MIBI/mg protein per nM
- Tc-MIBI 2 min uptake ([2]; +10^-7 M TPB, 5 seconds pre-incubation): 3.37±0.57 fmol Tc-MIBI/mg protein per nM
- Tc-MIBI 2 min uptake ([2]; control (no TPB)): 1.23±0.15 fmol Tc-MIBI/mg protein per nM

— patent US5277897A, “In vivo enhancement of cellular accumulation of lipophilic cationic organometallic compounds by reduction of intramembrane potential” (Brigham and Women's Hospital, priority 1992, dated 1994)
